# Measured values from patent US10865216B2, “Tricyclic Gyrase inhibitors” (MERCK SHARP & DOHME CORP., priority 2012, dated 2020).
# Like-named read-outs stand apart in the source and are kept apart here.
# Key:
# [1] = test system: S. aureus ATCC 13709; assay: MIC, S. aureus ATCC 13709; assay type: cell-based; settings: for MIC: Staphylococcus aureus
# [2] = test system: E. coli ATCC 25922; assay: MIC, E. coli ATCC 25922; assay type: cell-based; settings: for MIC: Escherichia coli
# [3] = S. aureus, Alamar Blue read after overnight incubation at 35° C.
# [4] = E. coli, Alamar Blue read after overnight incubation at 35° C.
# [5] = ATCC13709, S. aureus, Alamar Blue read after overnight incubation at 35° C., read-out: MIC Sa
# [6] = ATCC25922, E. coli, Alamar Blue read after overnight incubation at 35° C., read-out: MIC Ec
# [7] = ATCC13709, Table 16, new R4 substituents, read-out: SA MIC
# [8] = ATCC25922, Table 16, new R4 substituents, EC8 not defined, read-out: EC8 MIC
smiles,measurement,setting,value
CNc1cc(F)cc2c1[nH]c1nc(Oc3ccc(C)nc3)nc(N3CC4CC(C)NC4C3)c12 (stereo not drawn) [Compound 10.79],MIC Sa,"[1]; Table 18, Sa",≤ 0.5 µg/mL
same,MIC Ec,"[2]; Table 18, Ec",≤ 0.5 µg/mL
CNc1cc(F)cc2c1[nH]c1nc(Oc3cnc4ccnn4c3)nc(N3C[C@@H]4[C@H](N)C[C@]4(C)C3)c12 [Compound 10.18],MIC Sa,"[1]; Table 18, Sa",≤ 0.5 µg/mL
same,MIC Ec,"[2]; Table 18, Ec",≤ 0.5 µg/mL
CNc1cc(F)cc2c1[nH]c1nc(Oc3cncc(C)c3)nc(N3CC4CC(N)C4C3)c12 (stereo not drawn) [Compound 4.303],MIC Sa,[1]; [3],≤0.5 µg/mL
same,MIC Ec,[2]; [4],≤0.5 µg/mL
CNc1cccc2c1[nH]c1nc(Sc3cnc4cccnc4c3)nc(N3CCC[C@@H](N)C3)c12 [Compound 1.37],MIC,[1]; [5],1 µg/mL
same,MIC,[2]; [6],4 µg/mL
CNc1cccc2c1[nH]c1nc(Sc3cnc4ccc[n+]([O-])c4c3)nc(N3CC(O)C3)c12 [Compound 1.17],MIC,[1]; [5],≤ 0.5 µg/mL
same,MIC,[2]; [6],> 64 µg/mL
CCC1(CN)CCN(c2nc(Oc3cnc(C)nc3)nc3[nH]c4c(NC)cc(F)cc4c23)C1 (stereo not drawn),MIC,[1]; [7],≤ 0.5 µg/mL
same,MIC,[2]; [8],≤ 0.5 µg/mL
CNc1cccc2c1[nH]c1nc(Oc3cnc(C)nc3)cc(N3CCC4(CC4N)C3)c12 (stereo not drawn) [Compound 3.42],MIC,[1]; [5],≤ 0.5 µg/mL
same,MIC,[2]; [6],2 µg/mL
CNc1cc(F)cc2c1[nH]c1nc(Oc3cncc(-c4cncnc4)c3)nc(N3CC4C(N)C4C3)c12 (stereo not drawn) [Compound 4.205],MIC Sa,[1]; [3],≤0.5 µg/mL
same,MIC Ec,[2]; [4],≤0.5 µg/mL
CNc1cccc2c1[nH]c1nc(Oc3cnc(C)nc3)cc(N3CC[C@@H](NCCC#N)C3)c12 [Compound 3.10],MIC,[1]; [5],32 µg/mL
same,MIC,[2]; [6],> 64 µg/mL
CNc1cc(F)cc2c1[nH]c1nc(Oc3cnc(C)nc3)nc(N3CC4C(C3)C4NC(=O)CN)c12 (stereo not drawn) [Compound 4.078],MIC Sa,[1]; [3],≤0.5 µg/mL
same,MIC Ec,[2]; [4],8 µg/mL
CNc1cc(F)cc2c1[nH]c1nc(Oc3cnc(N)nc3)nc(N3CC4C(N)C4C3)c12 (stereo not drawn) [Compound 4.172],MIC Sa,[1]; [3],≤0.5 µg/mL
same,MIC Ec,[2]; [4],≤0.5 µg/mL
CNc1cc(F)cc2c1[nH]c1nc(Oc3cncnc3)nc(N3CCC4(CC4N)C3)c12 (stereo not drawn) [Compound 4.003],MIC Sa,[1]; [3],≤0.5 µg/mL
same,MIC Ec,[2]; [4],≤0.5 µg/mL
CNc1cc(F)cc2c1[nH]c1nc(Oc3cnc(C)nc3)nc(C3=CCNCC3)c12 [Compound 4.162],MIC Sa,[1]; [3],8 µg/mL
same,MIC Ec,[2]; [4],>16 µg/mL
CNc1cc(F)cc2c1[nH]c1nc(Oc3cnc(C)nc3)nc(N3CC(C4(N)CC4)C3)c12 [Compound 4.080],MIC Sa,[1]; [3],≤0.5 µg/mL
same,MIC Ec,[2]; [4],1 µg/mL
CNc1cc(F)cc2c1[nH]c1nc(NCc3cccnc3)nc(N3C[C@H]4C[C@@H]3C[C@H]4N)c12 [Compound 10.51],MIC Sa,"[1]; Table 18, Sa",4 µg/mL
same,MIC Ec,"[2]; Table 18, Ec",16 µg/mL
CNc1cccc2c1[nH]c1nc(Sc3cnc4ccc[n+]([O-])c4c3)nc(N3CC4C(N)C4C3)c12 (stereo not drawn) [Compound 1.66],MIC Sa,[1]; [3],≤0.13 µg/mL
same,MIC Ec,[2]; [4],≤0.5 µg/mL
CNc1cccc2c1[nH]c1nc(Oc3cncnc3)cc(-c3cn[nH]c3)c12 [Compound 3.9],MIC,[1]; [5],2 µg/mL
same,MIC,[2]; [6],32 µg/mL
CNc1ncc(Oc2nc(N3CCC4(CC4N)C3)c3c(n2)[nH]c2c(NC)cc(F)cc23)cn1 (stereo not drawn) [Compound 4.220],MIC Sa,[1]; [3],≤0.5 µg/mL
same,MIC Ec,[2]; [4],≤0.5 µg/mL
CNc1cc(F)cc2c1[nH]c1nc(Oc3cnc(C)nc3)nc(N3CC[C@@H](CN)C3)c12,MIC,[1]; [7],≤ 0.5 µg/mL
same,MIC,[2]; [8],≤ 0.5 µg/mL
CNc1cc(F)cc2c1[nH]c1nc(Oc3cnc(C)nc3)nc(N3CC4CCC(N)C4(C)C3)c12 (stereo not drawn) [Compound 4.099],MIC Sa,[1]; [3],≤0.5 µg/mL
same,MIC Ec,[2]; [4],4 µg/mL
CNc1cc(F)cc2c1[nH]c1nc(Cc3cnc(C)nc3)nc(N3CC[C@@]4(C[C@@H]4N)C3)c12,SA MIC,"[1]; Table 11, compounds wherein L = CH2",1 µg/mL
same,EC8 MIC,"[2]; Table 11, L = CH2, EC8 not defined",8 µg/mL
